Like-named read-outs stand apart in the source and are kept apart here.

The target of this test is T1, EHMT2 (Homo sapiens, UniProt Q96KQ7).
T1 construct: endogenous in cells; host or cells: MDA-MB-231 (ATCC)
T1 sequence (Q96KQ7 1-1210): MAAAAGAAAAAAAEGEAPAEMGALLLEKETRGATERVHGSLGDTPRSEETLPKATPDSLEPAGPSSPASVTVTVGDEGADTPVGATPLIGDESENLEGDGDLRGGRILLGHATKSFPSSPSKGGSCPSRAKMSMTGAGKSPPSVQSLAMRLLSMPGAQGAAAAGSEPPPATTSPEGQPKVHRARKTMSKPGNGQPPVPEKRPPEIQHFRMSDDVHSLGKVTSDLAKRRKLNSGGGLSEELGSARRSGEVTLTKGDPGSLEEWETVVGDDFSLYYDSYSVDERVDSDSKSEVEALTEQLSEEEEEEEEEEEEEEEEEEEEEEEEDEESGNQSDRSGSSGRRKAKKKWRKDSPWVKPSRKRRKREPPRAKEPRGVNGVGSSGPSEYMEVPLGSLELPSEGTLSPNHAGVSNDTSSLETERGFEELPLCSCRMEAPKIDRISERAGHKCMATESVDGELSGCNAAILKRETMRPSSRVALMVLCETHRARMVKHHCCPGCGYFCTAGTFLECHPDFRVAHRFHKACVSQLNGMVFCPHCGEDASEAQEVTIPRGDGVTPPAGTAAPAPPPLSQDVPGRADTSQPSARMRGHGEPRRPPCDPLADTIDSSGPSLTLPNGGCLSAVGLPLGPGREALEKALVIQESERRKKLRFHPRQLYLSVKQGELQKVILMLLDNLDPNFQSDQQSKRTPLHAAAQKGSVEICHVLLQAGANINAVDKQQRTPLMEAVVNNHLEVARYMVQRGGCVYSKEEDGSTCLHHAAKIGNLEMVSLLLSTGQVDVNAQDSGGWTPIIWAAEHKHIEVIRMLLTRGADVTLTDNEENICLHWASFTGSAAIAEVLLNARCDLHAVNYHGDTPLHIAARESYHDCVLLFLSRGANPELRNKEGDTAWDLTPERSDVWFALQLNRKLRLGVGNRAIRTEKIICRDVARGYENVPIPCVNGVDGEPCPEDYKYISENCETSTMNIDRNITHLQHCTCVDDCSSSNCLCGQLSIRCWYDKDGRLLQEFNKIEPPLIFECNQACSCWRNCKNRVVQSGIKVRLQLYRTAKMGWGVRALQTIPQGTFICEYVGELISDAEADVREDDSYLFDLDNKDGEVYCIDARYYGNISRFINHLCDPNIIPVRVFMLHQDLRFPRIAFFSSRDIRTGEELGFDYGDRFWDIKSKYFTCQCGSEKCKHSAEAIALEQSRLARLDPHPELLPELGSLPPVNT
Put plainly: MDA-MB-231 H3K9me2 in-cell Western assay (EHMT2 ICW). Format: cell-based. The text has this: MDA-MB-231 cell line was purchased from ATCC (Manassas, Va., USA). RPMI/Glutamax medium, Penicillin-Streptomycin, Heat Inactivated Fetal Bovine Serum, and D-PBS were purchased from Life Technologies (Grand Island, N.Y., USA). Odyssey blocking buffer, 800CW goat anti-mouse IgG (H+L) antibody, and Licor Odyssey Infrared Scanner were purchased from Licor Biosciences, Lincoln, Nebr., USA. H3K9me2 mouse monoclonal antibody (Cat #1220) was purchased from Abcam (Cambridge, Mass., USA). 16% Paraformaldehyde was purchased from Electron Microscopy Sciences, Hatfield, Pa., USA). MDA-MB-231 cells were maintained in complete growth medium (RPMI supplemented with 10% v/v heat inactivated fetal bovine serum) and cultured at 37° C. under 5% CO2. UNC0638 was purchased from Sigma-Aldrich (St. Louis, Mo., USA).
General Procedure for MDA-MB-231 HEK9me2 in-cell Western Assay. Compound (100 nL) was added directly to 384-well cell plate. MDA-MB-231 cells (ATCC) were seeded in assay medium (RPMI/Glutamax supplemented with 10% v/v heat inactivated fetal bovine serum and 1% Penicillin/Streptomycin, Life Technologies) at a concentration of 3,000 cells per well to a Poly-D-Lysine coated 384-well cell culture plate with 50 μL per well. Plates were incubated at 37° C., 5% CO2 for 48 hours (BD Biosciences 356697). Plates were incubated at room temperature for 30 minutes and then incubated at 37° C., 5% CO2 for additional 48 hours. After the incubation, 50 μL per well of 8% paraformaldehyde (Electron Microscopy Sciences) in PBS was added to the plates and incubated at room temperature for 20 minutes. Plates were transferred to a Biotek 406 plate washer and washed 2 times with 100 μL per well of wash buffer (1×PBS containing 0.3% Triton X-100 (v/v)). Next, 60 μL per well of Odyssey blocking buffer (Licor Biosciences) was added to each plate and incubated for 1 hour at room temperature. Blocking buffer was removed and 20 μL of monoclonal primary antibody α-H3K9me2 (Abcam) diluted 1:800 in Odyssey buffer with 0.1% Tween 20 (v/v) were added and plates were incubated overnight (16 hours) at 4° C. Plates were washed 5 times with 100 μL per well of wash buffer. Next 20 μL per well of secondary antibody was added (1:500 800CW donkey anti-mouse IgG (H+L) antibody (Licor Biosciences), 1:1000 DRAQ5 (Cell Signaling Technology) in Odyssey buffer with 0.1% Tween 20 (v/v)) and incubated for 1 hour at room temperature. The plates were washed 5 times with […] wash buffer then 2 times with 100 μL per well of water. Plates were allowed to dry at room temperature then imaged on a Licor Odyssey Infrared Scanner (Licor Biosciences) which measured integrated intensity at 700 nm and 800 nm wavelengths. Both 700 and 800 channels were scanned.
% Inhibition Calculation. First, the ratio for each well was determined by:
Each plate included fourteen control wells of DMSO only treatment (Minimum Inhibition) as well as fourteen control wells (background wells) for maximum inhibition treated with control compound UNC0638 (Background wells).
The average of the ratio values for each well was calculated and used to determine the percent inhibition for each test well in the plate. Control compound was serially diluted three-fold in DMSO for a total of 10 test concentrations beginning at 1 μM. Percent inhibition was calculated as: […]
IC50 curves were generated using triplicate wells per concentration of compound. The IC50 is the concentration of compound at which measured methylation is inhibited by 50% as interpolated from the dose response curves. IC50 values were calculated using a non-linear regression (variable slope-four parameter fit model) with by the following formula:
where Top is fixed at 100% and Bottom is fixed to 0%, [I]=concentration of inhibitor, IC50=half maximal inhibitory concentration, and n=Hill Slope.

Where [1] appears, read: MDA-MB-231 cells, H3K9me2 in-cell Western, read-out: EHMT2 ICW (IC50 μM).

As to `COc1cc2c(cc1OC[C@H](O)CN1CCCC1)nc(NC1CCCC1)n2C` [Compound 33], the IC50 (usually the concentration that inhibits the measured activity by half) under setting [1] lay in the range of 1 to 10 µM.
Take `COc1cc2c(cc1OCCCN1CCCC1)N=C(N)C21CCOC1` (stereo not shown) [Compound 7, 5′-methoxy-6′-(3-(pyrrolidin-1-yl)propoxy)-4,5-dihydro-2H-spiro[furan-3,3′-indol]-2′-amine]: the half-inhibitory concentration (IC50) was 0.1 to 1 µM.
For the compound `COc1cc2c(cc1OCCCN1CCCC1)nc(N)n2C1CCCC1` [Compound 3, 1-cyclopentyl-6-methoxy-5-(3-(pyrrolidin-1-yl)propoxy)-1H-benzo[d]imidazol-2-amine], the IC50 under setting [1] was in the range of 0.1 to 1 µM.
With `COc1cc2c(cc1OCCCN1CCCC1)nc(C1CCCC1)n2C` [Compound 22, 2-cyclopentyl-6-methoxy-1-methyl-5-(3-(pyrrolidin-1-yl)propoxy)-1H-benzo[d]imidazole], the IC50 under setting [1] was more than 10 µM.
On to `CNC1=Nc2cc(CNCCN3CCCC3)c(OC)cc2C12CCC2` [Compound 70], for which, under setting [1], the IC50 lay within 0.1 to 1 µM.
Still for that read-out and setting: under `CNc1nc2cc(OC[C@H](O)CN3CCCC3)c(OC)cc2n1C` [Compound 26] stands 0.1 to 1 µM; under `CCn1c(NC)nc2cc(CNCCN3CCCC3)c(OC)cc21` [Compound 41], 0.1 to 1 µM; under `COc1cc2c(cc1OCCCN1CCCC1)nc(NCC(F)(F)F)n2C` [Compound 12, 6-methoxy-1-methyl-5-(3-(pyrrolidin-1-yl)propoxy)-N-(2,2,2-trifluoroethyl)-1H-benzo[d]imidazol-2-amine], 1 to 10 µM.
On to `COc1cc2c(cc1OCCCN1CCCC1)nc(NC(C)C)n2C` [Compound 28], for which the IC50 under setting [1] was 1 to 10 µM.
Same read-out and setting: under `CNc1nc2cc(OCCCN3CCCC3)c(OC)cc2n1C(C)C` [Compound 36] stands less than 0.1 µM; under `COc1cc2c(cc1CNCCN1CCCC1)N=C(NC1CCOCC1)C21CCC1` [Compound 76], 1 to 10 µM; under `COc1cc2c(cc1OCCCN1CCCC1)nc(C)n2C1CCCC1` [Compound 23, 1-cyclopentyl-6-methoxy-2-methyl-5-(3-(pyrrolidin-1-yl)propoxy)-1H-benzo[d]imidazole], 1 to 10 µM.
As for `CNC1=Nc2cc(C#C[C@H](C)N3CCCC3)c(OC)cc2C12CCC2` [Compound 85], the IC50 under setting [1] was less than 0.1 µM.
In the case of `CNC1=Nc2cc(C#CC(C)N3CCCCC3)c(OC)cc2C12CCC2` (stereo not shown) [Compound 92], the IC50 under setting [1] was in the range of 0.1 to 1 µM.
The same measure, in the same setting: as for `COc1cc2sc(N)nc2cc1OCCCN1CCCC1` [Compound 6, 6-methoxy-5-[3-(pyrrolidin-1-yl)propoxy]-1,3-benzothiazol-2-amine], the figure is more than 10 µM; as for `CNc1nc2cc(OCCCN3CCCC3)c(OC)cc2n1C` [Compound 8, 6-methoxy-N,1-dimethyl-5-(3-(pyrrolidin-1-yl)propoxy)-1H-benzo[d]imidazol-2-amine], less than 0.1 µM.
For the compound `COc1cc2c(cc1OCCCN1CCCC1)nc(N)n2CC1CCOCC1` [Compound 18], the IC50 under setting [1] lay in the range of 1 to 10 µM.
For `CNC1=Nc2cc(C#CCN3CCCCC3)c(OC)cc2C12CCC2` [Compound 75, 5′-methoxy-N-methyl-6′-(3-(piperidin-1-yl)prop-1-yn-1-yl)spiro[cyclobutane-1,3′-indol]-2′-amine], the IC50 under setting [1] is less than 0.1 µM.
For `CCNC1=Nc2cc(CNCCN3CCC3)c(OC)cc2C12CCC2` [Compound 72], the IC50 under setting [1] was 1 to 10 µM.
With `CCN1CC(COc2cc3nc(N)n(C4CCCC4)c3cc2OC)C1` [Compound 10, 1-cyclopentyl-5-((1-ethylazetidin-3-yl)methoxy)-6-methoxy-1H-benzo[d]imidazol-2-amine], the IC50 under setting [1] was 0.1 to 1 µM.
Turning to `CNc1nc2cc(OC[C@H](O)CN3CCCC3)c(OC)cc2n1C1CCCC1` [Compound 38], under setting [1], the IC50 was in the range of 0.1 to 1 µM.
On the same count and under the same terms, under `COc1cc2c(cc1C#CCN1CCCC1)N=C(N)C21CCC1` [Compound 24, 5′-methoxy-6′-(3-(pyrrolidin-1-yl)prop-1-yn-1-yl)spiro[cyclobutane-1,3′-indol]-2′-amine] stands less than 0.1 µM; under `COc1cc2c(cc1OCCCN1CCCC1)nc(NC1CCOCC1)n2C` [Compound 29], 1 to 10 µM.
Regarding `CNC1=Nc2cc(C#CCN3CCCC3)c(OC)cc2C12CCC2` [Compound 74], the IC50 under setting [1] was less than 0.1 µM.
`CNc1nc2cc(CNCCN3CCCC3)c(Cl)cc2n1C(C)C` [Compound 138]: the IC50 under setting [1] lay within 1 to 10 µM.
`COc1cc2c(cc1OCCCN1CCCC1)nc(N)n2CC(F)(F)F` [Compound 11, 6-methoxy-5-(3-(pyrrolidin-1-yl)propoxy)-1-(2,2,2-trifluoroethyl)-1H-benzo[d]imidazole-2-amine]: under setting [1], the IC50 was 1 to 10 µM.
On to `CCNc1nc2cc(OCCCN3CCCC3)c(OC)cc2n1CC` [Compound 39], for which, under setting [1], the half-inhibitory concentration (IC50) fell in the range of 0.1 to 1 µM.
On the same count and under the same terms, under `COc1cc2c(cc1OCCCN1CCCC1)nc(N)n2C(C)C` [Compound 19] stands 0.1 to 1 µM; under `CNc1nc2cc(CNCCN3CCCC3)c(OC)cc2n1C` [Compound 37], 0.1 to 1 µM.
For `CNc1nc2cc(OCCCN3CCCC3)c(OC)cc2n1C1CCOCC1` [Compound 13, 6-methoxy-N-methyl-5-(3-(pyrrolidin-1-yl)propoxy)-1-(tetrahydro-2H-pyran-4-yl)-1H-benzo[d]imidazol-2-amine], the IC50 under setting [1] fell in the range of 0.1 to 1 µM.
As for `COc1cc2c(cc1OC[C@H](O)CN1CCCC1)nc(NCC1CC1)n2C` [Compound 34], the IC50 under setting [1] lay in the range of 0.1 to 1 µM.
With `COc1cc2c(cc1OCCCN1CCCC1)nc(N)n2C` [Compound 2, 6-methoxy-1-methyl-5-(3-(pyrrolidin-1-yl)propoxy)-1H-benzo[d]imidazol-2-amine], under setting [1], the IC50 was 0.1 to 1 µM.
In the case of `CCCNC1=Nc2cc(CNCCN3CCCC3)c(OC)cc2C12CCC2` [Compound 73], under setting [1], the IC50 is 0.1 to 1 µM.
In the case of `COc1cc2c(cc1OC[C@H](O)CN1CCCC1)nc(NC(C)C)n2C` [Compound 32], the IC50 under setting [1] is 1 to 10 µM.

For the origin of these results see patent US20220274961A1, “SUBSTITUTED FUSED BI- OR TRI- HETEROCYCLIC COMPOUNDS AS EHMT2 INHIBITORS” (priority 2016, published 2022).
